Where two headings read alike, the source gives them in different places.
Legend:
[1] = molecular target: T1, ferroportin (Fpn) (Mus musculus, UniProt Q9JHI9); assay: Hepcidin Internalization Assay (J774); assay type: cell-based; details: average of multiple measurements; inhibition of TMR-hepcidin (25 nM) internalization into J774 cells; read-out: J774 IC50
T1 construct: host or cells: J774 mouse macrophage cell line, Fe(III)-NTA induced
T1 sequence (Q9JHI9 1-570): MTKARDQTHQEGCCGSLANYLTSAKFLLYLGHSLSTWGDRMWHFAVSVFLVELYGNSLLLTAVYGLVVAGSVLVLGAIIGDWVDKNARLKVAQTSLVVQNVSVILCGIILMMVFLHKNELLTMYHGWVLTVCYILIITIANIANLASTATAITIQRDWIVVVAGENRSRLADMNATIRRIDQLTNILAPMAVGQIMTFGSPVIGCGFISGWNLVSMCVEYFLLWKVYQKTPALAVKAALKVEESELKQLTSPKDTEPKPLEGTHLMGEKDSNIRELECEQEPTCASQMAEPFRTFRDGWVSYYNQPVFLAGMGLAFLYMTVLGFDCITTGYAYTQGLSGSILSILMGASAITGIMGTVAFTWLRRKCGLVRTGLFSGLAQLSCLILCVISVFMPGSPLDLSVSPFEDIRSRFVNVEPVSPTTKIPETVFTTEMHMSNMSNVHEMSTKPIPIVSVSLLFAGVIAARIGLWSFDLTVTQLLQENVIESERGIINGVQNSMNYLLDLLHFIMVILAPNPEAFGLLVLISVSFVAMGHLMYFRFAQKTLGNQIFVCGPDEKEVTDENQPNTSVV
Outline: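 Mouse J774 macrophages, loaded overnight with 200 μM Fe(III)NTA, incubated 2 h at 37 °C with test compounds and TMR-labeled hepcidin. Cell-associated TMR fluorescence, a proxy for hepcidin binding to Fpn and internalization, quantified by automated imaging with Hoechst nuclear counterstain after fixation; IC50 from log(inhibitor) vs. response fit, triplicates.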

[2] = tested on: naïve WT C57BL/6 mice; assay: Hypoferremia in naïve mice; assay type: in vivo, mouse; details: Mus musculus, po, 3 h, read-out: Serum Iron Reduction at 3 h (%)
Procedure: Female C57BL/6 mice (Janvier, France) at age of 9 weeks were fed a standard diet (Harlan Provimi Kliba 3436) and treated per os (p.o.) with compounds or the corresponding amount of vehicle at a volume of 10 ml/kg body weight. Fpn inhibitors were formulated in 0.5% methylcellulose/water or 20% cremophor EL/water and dosed p.o. in mice at 10, 30 or 100 mg/kg body weight. Three hours later, mice were pre terminally anesthetized in isoflurane chambers and blood was collected by retro-orbital bleeding. Mice were sacrificed by cervical dislocation and spleens, livers and duodena were harvested and used for biomarker analysis. All experiments have been conducted in compliance with the license approved by the responsible veterinarian authorities. Serum was isolated by centrifugation of blood into gel-containing microtainers and serum iron was determined by the MULTIGENT Iron assay (Abbott Diagnostics, 6K95). Eight mice per group were used and one-way ANOVA with Bonferroni's multiple comparison test was performed to analyze the statistical differences between the experimental groups.

[3] = molecular target: T2, human Fpn-GFP fusion (Homo sapiens, UniProt Q9NP59); assay: Inhibition of ferroportin mediated iron export activity in an iron response assay (BLAzer); assay type: cell-based; details: average of multiple measurements; HEK-293 cell line #354; read-out: BLAzer EC50
T2 construct: expressed in transfected cells; host or cells: HEK-293 cell line #354 (derivative of HEK-293 Tet-ON Advanced, Clontech)
T2 sequence (Q9NP59 1-571): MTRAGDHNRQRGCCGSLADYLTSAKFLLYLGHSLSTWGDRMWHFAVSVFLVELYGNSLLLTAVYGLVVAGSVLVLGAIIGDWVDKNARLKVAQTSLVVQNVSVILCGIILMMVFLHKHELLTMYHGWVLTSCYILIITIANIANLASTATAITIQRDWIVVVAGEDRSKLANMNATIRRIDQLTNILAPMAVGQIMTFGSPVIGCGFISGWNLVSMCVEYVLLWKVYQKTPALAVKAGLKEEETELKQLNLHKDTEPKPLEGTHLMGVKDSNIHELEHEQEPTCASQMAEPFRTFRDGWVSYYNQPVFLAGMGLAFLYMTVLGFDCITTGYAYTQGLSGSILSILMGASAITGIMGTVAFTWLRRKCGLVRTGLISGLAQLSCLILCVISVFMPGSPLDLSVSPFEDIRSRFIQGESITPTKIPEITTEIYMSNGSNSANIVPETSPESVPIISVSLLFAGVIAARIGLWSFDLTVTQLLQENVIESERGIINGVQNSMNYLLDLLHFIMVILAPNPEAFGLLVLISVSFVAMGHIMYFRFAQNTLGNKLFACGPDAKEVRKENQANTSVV
Excerpt: Intracellular iron levels are indirectly measured in this assay by monitoring the activity of a beta-lactamase (BLA) reporter gene fused to the human ferritin promoter and the associated iron regulatory element (IRE) contained within the 5′ untranslated region of the ferritin mRNA. Expression of ferroportin (Fpn) in such a cell line leads to iron efflux and lower iron levels as reflected by lower activity of the reporter gene. On the other hand, inhibition of Fpn-mediated iron efflux results in elevated cellular iron levels which is detected as increased reporter gene activity. Small molecular weight Fpn inhibitor compounds were tested for dose-dependent effects in this in vitro iron response assay as described below.
The HEK-293 cell line #354 was generated by stable integration of (i) a human Fpn-GFP fusion construct inserted in a derivative of the doxycycline-inducible pTRE-Tight-BI plasmid (Clontech, Cat. 631068) and (ii) a human ferritin promoter-BLA reporter gene into a derivative of the HEK-293 Tet-ON Advanced cell line (Clontech). […] After overnight incubation, 10 μl/well of dilution series of the test compounds were added in quadruplicates and plates were further incubated overnight at 37° C. with 5% CQ. Cells were washed 3 times with HBSS leaving 25 μl per well. BLA activity was detected by adding 5 μl/well of the GeneBlazer reagent CCF4-AM (Invitrogen, Cat. K1085) to the cells. After incubation of the plates in the dark at 18° C. for 60 min., blue and green fluorescence signals were measured in a Safre2 fluorescence plate reader (Tecan) with excitation at 410 nm and emissions at 458 nm (blue) and 522 nm (green). The ratio of blue/green fluorescence as a measure for BLA activity was calculated and EC50 values were determined with the calculated blue/green fluorescence ratios as described for the hepcidin internalization assay.

[4] = molecular target: T3, human Fpn (Homo sapiens, UniProt Q9NP59); assay: Biophysical Ferroportin-Hepcidin Binding Assay (fluorescence polarization); details: average of multiple measurements; 1 μM human Fpn, 20 nM TMR-hepcidin; read-out: FP IC50
T3 construct: FLAG (C); made in house; host or cells: Pichia pastoris
T3 sequence (Q9NP59 1-571): T2 sequence (Q9NP59 1-571)
Outline: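 Purified human Fpn (C-terminal FLAG tag, expressed in Pichia pastoris) at 1 μM final was incubated with 20 nM TMR-hepcidin and serially diluted compounds in duplicate for 90 min at room temperature. Binding inhibition was read as a dose-dependent fall in FP (mP), calculated from parallel and perpendicular fluorescence.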

[5] = Dose 10 mg/kg p.o., naïve WT C57BL/6 mice, relative to vehicle
[6] = Dose 30 mg/kg p.o., naïve WT C57BL/6 mice, relative to vehicle
[7] = Dose 100 mg/kg p.o., naïve WT C57BL/6 mice, relative to vehicle

Row | Structure (SMILES) | IC50 [1] [nM] | EC50 [3] [nM] | IC50 [4] [nM] | inhibition in vivo at 10 mg/kg [2, 5] [%] | inhibition in vivo at 30 mg/kg [2, 6] [%] | inhibition in vivo at 100 mg/kg [2, 7] [%] | inhibition in vivo at 10 mg/kg [2] [%] | inhibition in vivo at 30 mg/kg [2] [%] | inhibition in vivo at 100 mg/kg [2] [%]
1 | O=C(NCc1ccccc1)c1csc(CCNCc2ccncn2)n1 [Example 27] | 38400 |  |  | 20 | 30 | 45 |  |  | 
2 | O=C(NCc1ccccn1)c1csc(CCNCCc2nc3ccccc3[nH]2)n1 [Example 58] | 10 |  |  | 20 | 30 | 40 |  |  | 
3 | O=C(NCc1ncc(C(F)(F)F)cc1Cl)c1csc(CCNCc2nc3ccccc3[nH]2)n1 [Example 101] | 280 | 2920 | 315 |  |  |  |  |  | 
4 | O=C(NCc1ncc(F)cc1Cl)c1csc(CCNCc2nc3ccccc3[nH]2)n1 [Example 102] | 58 | 1850 | 258 |  |  |  |  |  | 
5 | Cc1cc(C)c(CNC(=O)c2csc(CCNCc3nc4ccccc4[nH]3)n2)cn1 [Example 105] | 77 | 2630 | 420 |  |  |  |  |  | 
6 | O=C(c1csc(CCNCc2nc3ccccc3[nH]2)n1)N1CCc2ncccc2C1 [Example 107] | 1320 | 21000 | 5740 |  |  |  |  |  | 
7 | O=C(NCc1ncc(F)cc1F)c1csc(CCNCc2nc3ccccc3[nH]2)n1 [Example 108] | 130 | 4120 | 478 |  |  |  |  |  | 
8 | O=C(NCc1ncccc1Cl)c1nc(CCNCc2nc3ccccc3[nH]2)sc1Cl [Example 159] | 91 |  |  | 4 | 26 | 60 |  |  | 
9 | O=C(NCc1ncccc1Cl)c1ncn(CCNCc2nc3ccccc3[nH]2)n1 [Example 170] | 482 | 3960 | 280 |  |  |  |  |  | 
10 | O=C(NCc1ccccn1)c1coc(CCNCCc2nc3ccccc3[nH]2)n1 [Example 171] | 26 |  |  | 10 | 42 | 61 |  |  | 
11 | O=C(NCc1ncccc1F)c1csc(C2CN(CCc3nc4ccccc4[nH]3)C2)n1 [Example 193] | 287 |  |  | 13 | 11 | 31 |  |  | 
12 | O=C(NCCCCNCc1nc2ccccc2[nH]1)NCc1ncccc1F [compound 197] | 610 | 18100 | 550 |  |  |  |  |  | 
13 | O=C(CNC(=O)C1CN(CCc2nc3ccccc3[nH]2)C1)NCc1ncccc1F [compound 201] | 1930 | 39400 | 790 |  |  |  |  |  | 
14 | O=C(NCc1ncccc1F)c1cn(CCNCCc2nc3ccccc3[nH]2)nn1 [compound 277] |  |  |  |  |  |  | 6 | 21 | 54

The next lines start with results.

Row | IC50 [1] [nM] | EC50 [3] [nM] | IC50 [4] [nM] | Structure (SMILES) | inhibition in vivo at 10 mg/kg [2, 5] [%] | inhibition in vivo at 30 mg/kg [2, 6] [%] | inhibition in vivo at 100 mg/kg [2, 7] [%] | inhibition in vivo at 10 mg/kg [2] [%] | inhibition in vivo at 30 mg/kg [2] [%] | inhibition in vivo at 100 mg/kg [2] [%]
15 | 740 | 27300 | 660 | O=C(CCNCCc1nc2ccccc2[nH]1)NCC(=O)NCc1ncccc1F [compound 190] |  |  |  |  |  | 
16 | 3140 | 45100 | 5650 | O=C(NCc1ncccc1F)N1CCCC(CCNCCc2nc3ccccc3[nH]2)C1 (centres unmarked) [compound 200] |  |  |  |  |  | 
17 | 360 | 16900 | 147 | O=C(NCc1ncccc1F)c1cncc(CCNCc2nc3ccccc3[nH]2)c1 [compound 221] |  |  |  |  |  | 
18 | 1900 | 12000 | 267 | O=C(NCc1ncccc1F)c1cc(CCNCc2nc3ccccc3[nH]2)ccn1 [compound 232] |  |  |  |  |  | 
19 | 188 | 6140 | 295 | O=C(NCc1ncccc1F)c1cncc(CCNCCc2nc3cc(F)ccc3[nH]2)c1 [compound 245] |  |  |  |  |  | 
20 | 276 | 12900 | 263 | O=C(NCc1ncccc1F)c1cncc(CCNCCc2nc3c(F)cccc3[nH]2)c1 [compound 246] |  |  |  |  |  | 
21 | 363 | 6340 | 306 | O=C(NCc1ncccc1F)c1cncc(C2CN(CCc3nc4c(F)cccc4[nH]3)C2)c1 [compound 248] |  |  |  |  |  | 

From patent publication US10738041B2, “Ferroportin inhibitors” (Vifor (International) AG, priority 2015, dated 2020)
